We go through 78 compounds from patent US20050004126A1 (priority 2001, published 2005).

The target in one experiment is MMP-13CD (catalytic domain of collagenase 3) (Homo sapiens, UniProt P45452). The experiment can be described thus: Thiopeptolide hydrolysis assay, MMP-13.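 Also: inhibition of enzymatic thiopeptolide substrate cleavage (100 µM) in pH 6.0 MES buffer with CaCl2 and DTNB, comparing hydrolysis with versus without inhibitor.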 The settings on record: MMP 13 IC50 μM, Table III.
Consider `CCOc1ccccc1COC(=O)c1cc2c(=O)n(Cc3ccc(C(=O)O)cc3)c(=O)n(C)c2s1`, for which the IC50 (commonly the concentration that inhibits the measured activity by half) worked out at 8 µM.
On the same count and under the same terms, next, `COC(=O)CCCCn1c(=O)c2cc(C(=O)OCc3ccccc3)sc2n(C)c1=O`: 0.15 µM; `COc1ccc(CNC(=O)c2cc3c(=O)n(Cc4ccc5nocc5c4)c(=O)n(C)c3s2)cc1`: 0.018 µM.
The same measure, in the same setting: the figure for `COc1cccc(CNC(=O)c2cc3c(=O)n(CS(=O)(=O)Cc4ccccc4)c(=O)n(C)c3s2)c1` is 1.7 µM.
On the same count and under the same terms, the figure for `COc1cccc(CNC(=O)c2cc3c(=O)n(Cc4ccc5cocc5c4)c(=O)n(C)c3s2)c1` is 0.0505 µM.

The same experiment, now with this note: MMP13 IC50 μM, Table IVb.
Compound `COc1ccc(CNC(=O)c2ccc3c(c2)c(=O)n(CCn2cccc2)c(=O)n3C)cc1` displayed an IC50 of 1.45 µM.
Same read-out and setting: next, `COc1ccc(CNC(=O)c2ccc3c(c2)c(=O)n(Cc2ccc(-c4ccccc4-c4nnn[nH]4)cc2)c(=O)n3C)cc1`: 0.025 µM; `Cn1c(=O)n(CC=Cc2ccncc2)c(=O)c2cc(C(=O)NCc3ccncc3)ccc21`: 0.24 µM; `COc1ccc(CNC(=O)c2ccc3c(c2)c(=O)n(Cc2ccc(-c4nn[nH]n4)cc2)c(=O)n3C)cc1`: 0.0009 µM.
Still for that read-out and setting: next, `Cn1c(=O)n(Cc2ccncc2)c(=O)c2cc(C(=O)NCc3ccc(O)cc3)ccc21`: 0.051 µM; `C#CCn1c(=O)c2cc(C(=O)NCc3ccc(OC)cc3)ccc2n(C)c1=O`: 0.68 µM.
In turn, `COc1ccc(CNC(=O)c2ccc3c(c2)c(=O)n(Cc2ccccn2)c(=O)n3C)cc1` came in with an IC50 of 0.43 µM. This IC50 is about 1.6-fold lower than that of the compound before.
The same measure, in the same setting: next, `COc1ccc(CNC(=O)c2ccc3c(c2)c(=O)n(CC=C(C)C)c(=O)n3C)cc1`: 0.2 µM; `COc1ccc(CNC(=O)c2ccc3c(c2)c(=O)n(Cc2ccc(-c4nnnn4C)cc2)c(=O)n3C)cc1`: 0.0023 µM; `COc1ccc(CNC(=O)c2ccc3c(c2)c(=O)n(Cc2ccc(-c4nnn(C)n4)cc2)c(=O)n3C)cc1`: 0.004 µM.
Still for that read-out and setting: the figure for `COc1ccc(CNC(=O)c2ccc3c(c2)c(=O)n(Cc2ccc(-c4nc(C)no4)cc2)c(=O)n3C)cc1` is 0.0029 µM.
The same measure, in the same setting: next, `COc1ccc(CNC(=O)c2ccc3c(c2)c(=O)n(Cc2ccc(-c4noc(C)n4)cc2)c(=O)n3C)cc1`: 0.0049 µM; `CNC(=O)c1ccc(Cn2c(=O)c3cc(C(=O)NCc4ccc(OC)cc4)ccc3n(C)c2=O)cc1`: 0.0064 µM; `Cn1c(=O)c2cc(C(=O)NCc3ccc4c(c3)OCO4)cnc2n(C)c1=O`: 3.85 µM.
`Cn1c(=O)c2cc(C(=O)NCc3ccc4c(c3)OCO4)ncc2n(C)c1=O` had an IC50 of 0.18 µM.
Still for that read-out and setting: next, `COc1ccc(CNC(=O)c2ccc3c(c2)c(=O)n(Cc2ccc(C(=O)O)c(Cl)c2)c(=O)n3C)cc1`: 0.004 µM.
The same measure, in the same setting: next, `COc1ccc(CNC(=O)c2ccc3c(c2)c(=O)n(Cc2ccc(C(=O)O)c(O)c2)c(=O)n3C)cc1`: 0.0016 µM.
On the same count and under the same terms, the figure for `COc1ccc(CNC(=O)c2ccc3c(c2)c(=O)n(Cc2ccc(C(=O)O)c(OC)c2)c(=O)n3C)cc1` is 0.0045 µM; for `COc1ccc(CNC(=O)c2ccc3c(c2)c(=O)n(Cc2ccc(C(=O)O)c(C)c2)c(=O)n3C)cc1` it is 0.0018 µM; for `C=CCn1c(=O)c2cc(C(=O)NCc3ccc(OC)cc3)ccc2n(C)c1=O` it is 1.01 µM.
Regarding `COc1ccc(CNC(=O)c2ccc3c(c2)c(=O)n(Cc2ccc4nonc4c2)c(=O)n3C)cc1`, the IC50 stood at 0.018 µM.
Still for that read-out and setting: next, `Cn1c(=O)n(Cc2ccccc2)c(=O)c2cc(C(=O)NCc3ccc(C#N)cc3)ccc21`: 0.34 µM; `Cn1c(=O)n(Cc2ccccc2)c(=O)c2cc(C(=O)NCCCSc3ccncc3)ccc21`: 0.026 µM.
On to `Cn1c(=O)n(Cc2ccccc2)c(=O)c2cc(C(=O)OC/C=C/c3ccncc3)ccc21`, for which the IC50 turned out to be 0.385 µM.
On the same count and under the same terms, next, `Cn1c(=O)n(Cc2ccccc2)c(=O)c2cc(C(=O)OC/C=C/c3cccnc3)ccc21`: 0.34 µM; `Cn1c(=O)n(Cc2ccccc2)c(=O)c2cc(C(=O)CSc3ccncc3)ccc21`: 3.4 µM; `COc1ccc(CNC(=O)c2ccc3c(c2)c(=O)n(CC(N)=O)c(=O)n3C)cc1`: 1.95 µM.
Regarding `COc1ccc(CNC(=O)c2ccc3c(c2)c(=O)n(CCS(=O)(=O)c2ccccc2)c(=O)n3C)cc1`, half-maximal inhibition (IC50) was put at 0.84 µM. Against the preceding compound, the IC50 is about 2.3-fold lower.
The same measure, in the same setting: the figure for `COc1ccc(CNC(=O)c2ccc3c(c2)c(=O)n(CCOc2ccc(F)cc2)c(=O)n3C)cc1` is 0.15 µM.
In the case of `COc1ccc(CNC(=O)c2ccc3c(c2)c(=O)n(Cc2ccc(-c4ccccc4C#N)cc2)c(=O)n3C)cc1`, the IC50 came out at 0.025 µM.
The same measure, in the same setting: next, `COc1ccc(CNC(=O)c2ccc3c(c2)c(=O)n(Cc2ccc(NC(C)=O)cc2)c(=O)n3C)cc1`: 0.009 µM; `COc1ccc(CNC(=O)c2ccc3c(c2)c(=O)n(Cc2ccc(CN)cc2)c(=O)n3C)cc1`: 0.07 µM.
Still for that read-out and setting: the figure for `COc1ccc(CNC(=O)c2cc3c(=O)n(Cc4ccc(C#N)cc4)c(=O)n(C)c3cn2)cc1` is 0.0011 µM; for `Cn1c(=O)n(Cc2ccc(C#N)cc2)c(=O)c2cc(C(=O)NCc3ccncc3)ccc21` it is 0.053 µM; for `COc1ccc(CNC(=O)c2ccc3c(c2)c(=O)n(Cc2ccc(N(C)C)cc2)c(=O)n3C)cc1` it is 0.028 µM.
Same read-out and setting: next, `COc1ccc(CNC(=O)c2ccc3[nH]c(=O)n(Cc4ccc(N(C)C)cc4)c(=O)c3c2)cc1`: 0.075 µM; `Cn1c(=O)n(Cc2ccc(O)cc2)c(=O)c2cc(C(=O)NCc3ccncc3)ccc21`: 0.057 µM; `COc1ccc(Cn2c(=O)c3cc(C(=O)NCc4ccncc4)ccc3n(C)c2=O)cc1`: 0.06 µM.
The compound `COc1ccc(CNC(=O)c2ccc3c(c2)c(=O)n(Cc2ccc(NS(C)(=O)=O)cc2)c(=O)n3C)cc1` came in with an IC50 of 0.004 µM.
On the same count and under the same terms, next, `COc1ccc(CNC(=O)c2ccc3c(c2)c(=O)n(Cc2ccc(N)nc2)c(=O)n3C)cc1`: 0.053 µM.
On the same count and under the same terms, the figure for `CCn1c(=O)n(Cc2ccc(C(=O)O)cc2)c(=O)c2cc(C(=O)NCc3ccc(OC)cc3)ccc21` is 0.003 µM.
The same measure, in the same setting: the figure for `Cn1c(=O)n(Cc2ccc(C(=O)O)cc2)c(=O)c2cc(C(=O)NCc3ccncc3)ccc21` is 0.0057 µM; for `CSc1ccc(CNC(=O)c2ccc3c(c2)c(=O)n(Cc2ccc(C(=O)O)cc2)c(=O)n3C)cc1` it is 0.0029 µM; for `COc1cccc(CNC(=O)c2cc3c(=O)n(Cc4ccc(C(=O)O)cc4)c(=O)n(C)c3cn2)c1` it is 0.0011 µM.
Take `COc1cccc(CNC(=O)c2ccc3c(c2)c(=O)n(Cc2ccc(C(=O)O)cc2)c(=O)n3C)c1`: the IC50 was determined as 0.0009 µM. The IC50 values of the last two compounds are within 1.5-fold of each other.
Same read-out and setting: next, `Cn1c(=O)n(Cc2ccc(C(=O)O)cc2)c(=O)c2cc(C(=O)NCc3ccc(F)cc3)ccc21`: 0.0018 µM; `COc1ccc(CNC(=O)c2cc3c(=O)n(Cc4ccc(C(=O)O)cc4)c(=O)n(C)c3cn2)cc1`: 0.00074 µM.
`Cn1c(=O)n(Cc2ccc(C(=O)O)cc2)c(=O)c2cc(C(=O)NCc3ccc4c(c3)OCO4)ccc21`: the IC50 was 0.0009 µM. This IC50 and that of the compound before are within 1.5-fold of each other.
In turn, `Cn1c(=O)n(Cc2ccc(C(=O)O)cc2)c(=O)c2cc(C(=O)NCc3ccc4nonc4c3)ccc21` gave an IC50 of 0.003 µM. This IC50 is about 3.3-fold higher than that of the compound before.
The same measure, in the same setting: the figure for `COc1ccc(CNC(=O)c2ccc3c(c2)c(=O)n(Cc2ccc(-c4ccccc4C(=O)O)cc2)c(=O)n3C)cc1` is 0.013 µM; for `CCOC(=O)c1ccc(Cn2c(=O)c3cc(C(=O)NCc4ccc(OC)cc4)ccc3n(C)c2=O)cc1F` it is 0.009 µM.
`CCOC(=O)COc1ccc(CNC(=O)c2ccc3c(c2)c(=O)n(Cc2ccccc2)c(=O)n3C)cc1`: the midpoint of inhibition, the IC50, lay at 0.72 µM.
Same read-out and setting: the figure for `COC(=O)c1ccc(Cn2c(=O)c3cc(C(=O)NCc4ccc(OC)cc4)ccc3n(C)c2=O)cc1Cl` is 0.14 µM; for `COC(=O)c1ccc(Cn2c(=O)c3cc(C(=O)NCc4ccc(OC)cc4)ccc3n(C)c2=O)cc1O` it is 0.0043 µM; for `COC(=O)c1ccc(Cn2c(=O)c3cc(C(=O)NCc4ccc(OC)cc4)ccc3n(C)c2=O)cc1OC` it is 0.05 µM.
In the case of `COC(=O)c1ccc(Cn2c(=O)c3cc(C(=O)NCc4ccc(OC)cc4)ccc3n(C)c2=O)cc1C`, it took 0.0077 µM to reach half-maximal inhibition (IC50).
With `CCn1c(=O)n(Cc2ccc(C(=O)OC)cc2)c(=O)c2cc(C(=O)NCc3ccc(OC(F)(F)F)cc3)ccc21`, the IC50 is 0.34 µM. This IC50 lies about 44-fold higher than the previous one.
Turning to `CCn1c(=O)n(Cc2ccc(C(=O)OC)cc2)c(=O)c2cc(C(=O)NCc3ccc(OC)cc3)ccc21`, the IC50 was determined as 0.031 µM.
The same measure, in the same setting: the figure for `COC(=O)c1ccc(Cn2c(=O)c3cc(C(=O)NCc4cc[n+]([O-])cc4)ccc3n(C)c2=O)cc1` is 0.1 µM; for `COC(=O)c1ccc(Cn2c(=O)c3cc(C(=O)NCc4ccncc4)ccc3n(C)c2=O)cc1` it is 0.023 µM.
Same read-out and setting: next, `COC(=O)c1ccc(Cn2c(=O)c3cc(C(=O)NCc4ccc(SC)cc4)ccc3n(C)c2=O)cc1`: 0.023 µM.
On the same count and under the same terms, the figure for `COC(=O)c1ccc(Cn2c(=O)c3cc(C(=O)NCc4cccc(OC)c4)ccc3n(C)c2=O)cc1` is 0.003 µM; for `COC(=O)c1ccc(Cn2c(=O)c3cc(C(=O)NCc4ccc(F)cc4)ccc3n(C)c2=O)cc1` it is 0.01 µM; for `COC(=O)c1ccc(Cn2c(=O)[nH]c3ccc(C(=O)NCc4ccc(OC)cc4)cc3c2=O)cc1` it is 0.009 µM.
`COC(=O)c1ccc(Cn2c(=O)c3cc(C(=O)NCc4ccc5c(c4)OCO5)ccc3n(C)c2=O)cc1` displayed an IC50 of 0.0028 µM.
On the same count and under the same terms, next, `COC(=O)c1ccc(Cn2c(=O)c3cc(C(=O)NCc4ccc5nonc5c4)ccc3n(C)c2=O)cc1`: 0.035 µM.
Compound `COC(=O)c1ccccc1-c1ccc(Cn2c(=O)c3cc(C(=O)NCc4ccc(OC)cc4)ccc3n(C)c2=O)cc1` showed an IC50 of 0.084 µM.
`COC(=O)Cc1ccc(Cn2c(=O)c3cc(C(=O)NCc4ccncc4)ccc3n(C)c2=O)cc1`: inhibition was half-maximal at 0.02 µM (IC50). This IC50 is about 4.2-fold lower than that of the compound before.
Same read-out and setting: the figure for `COC(=O)Cn1c(=O)n(Cc2ccccc2)c(=O)c2cc(C(=O)NCc3ccc4c(c3)OCO4)ccc21` is 0.16 µM.
In turn, `Cn1c(=O)n(Cc2ccc(CC(=O)O)cc2)c(=O)c2cc(C(=O)NCc3ccncc3)ccc21` returned an IC50 of 0.011 µM.
As to `Cn1c(=O)n(Cc2ccccc2)c(=O)c2cc(C(=O)NCc3ccc(OCC(=O)O)cc3)ccc21`, inhibition was half-maximal at 2.9 µM (IC50).
On the same count and under the same terms, next, `O=C(O)Cn1c(=O)n(Cc2ccccc2)c(=O)c2cc(C(=O)NCc3ccc4c(c3)OCO4)ccc21`: 0.105 µM; `COc1ccc(CNC(=O)c2ccc3c(c2)c(=O)n(Cc2ccc(NC(=O)OC(C)(C)C)nc2)c(=O)n3C)cc1`: 0.015 µM.
